Columns and labels:
AVEFA [1] = assay: Post-emergence herbicidal action against AVEFA; assay type: in vivo, Avena fatua; conditions: 20 g/ha, visual assessment about 3 weeks after treatment, 100% = plants have died, 0% = like control plants
How it was run: (§1)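 Sandy loam, greenhouse; treatment 2–3 weeks after sowing, one-leaf stage. Aqueous suspension or emulsion from WP/EC sprayed on foliage (600–800 l/ha, 0.2% wetting agent). Readout: visual % action, ~3 weeks.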

SETVI [2] = assay: Post-emergence herbicidal action against SETVI; assay type: in vivo, Setaria viridis
How it was run: as §1

ALOMY [3] = assay: Pre-emergence herbicidal action against ALOMY; assay type: in vivo, Alopecurus myosuroides; conditions: pre-emergence
How it was run: (§2)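 Seeds sown in sandy loam, soil-covered; compound sprayed on soil surface pre-emergence. Application: WP/EC, 600–800 l/ha, 0.2% wetting agent. Readout: visual % damage at 3 weeks.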

MATIN [4] = assay: Pre-emergence herbicidal action against MATIN; assay type: in vivo, Matricaria inodora
How it was run: as §2

VIOTR [5] = assay: Pre-emergence herbicidal action against VIOTR; assay type: in vivo, Viola tricolor; conditions: dosage 80 g/ha
How it was run: as §2

ECHCG [6] = assay: Pre-emergence herbicidal action against ECHCG; assay type: in vivo, Echinochloa crus-galli; conditions: 80 g/ha
How it was run: as §2

ABUTH [7] = assay: Post-emergence herbicidal action against ABUTH; assay type: in vivo, Abutilon theophrasti; conditions: visual assessment about 3 weeks after treatment vs untreated controls
How it was run: as §1

ALOMY [8] = assay: Post-emergence herbicidal action against ALOMY; assay type: in vivo, Alopecurus myosuroides; conditions: dosage 20 g/ha, visual assessment about 3 weeks after treatment vs untreated controls
How it was run: as §1

SETVI [9] = assay: Pre-emergence herbicidal action against SETVI; assay type: in vivo, Setaria viridis; conditions: dosage 80 g/ha
How it was run: as §2

AMARE [10] = assay: Post-emergence herbicidal action against AMARE; assay type: in vivo, Amaranthus retroflexus; conditions: 20 g/ha, visual assessment about 3 weeks after treatment, 100% = plants have died, 0% = like control plants
How it was run: as §1

VERPE [11] = assay: Pre-emergence herbicidal action against VERPE; assay type: in vivo, Veronica persica
How it was run: as §2

AMARE [12] = assay: Pre-emergence herbicidal action against AMARE; assay type: in vivo, Amaranthus retroflexus
How it was run: as §2

ABUTH [13] = assay: Pre-emergence herbicidal action against ABUTH; assay type: in vivo, Abutilon theophrasti
How it was run: as §2

AVEFA [14] = assay: Pre-emergence herbicidal action against AVEFA; assay type: in vivo, Avena fatua; conditions: Avena fatua, 504 h; 80 g/ha, pre-emergence
How it was run: as §2

VERPE [15] = assay: Post-emergence herbicidal action against VERPE; assay type: in vivo, Veronica persica; conditions: 20 g/ha
How it was run: as §1

LOLRI = assay: Pre-emergence herbicidal action against LOLRI; assay type: in vivo, Lolium rigidum; conditions: 80 g/ha
How it was run: as §2

PHBPU [16] = assay: Post-emergence herbicidal action against PHBPU; assay type: in vivo, Pharbitis purpurea; conditions: dosage 20 g/ha
How it was run: as §1

PHBPU [17] = assay: Pre-emergence herbicidal action against PHBPU; assay type: in vivo, Pharbitis purpurea; conditions: dosage 80 g/ha
How it was run: as §2

VIOTR [18] = assay: Post-emergence herbicidal action against VIOTR; assay type: in vivo, Viola tricolor; conditions: 20 g/ha
How it was run: as §1

MATIN [19] = assay: Post-emergence herbicidal action against MATIN; assay type: in vivo, Matricaria inodora; conditions: dosage 20 g/ha
How it was run: as §1

ECHCG [20] = assay: Post-emergence herbicidal action against ECHCG; assay type: in vivo, Echinochloa crus-galli
How it was run: as §1

[21] = 80 g/ha, scored visually after 3 weeks vs untreated controls (100% = plants have died, 0% = like control plants)

Molecule Cn1nnnc1NC(=O)c1ccc(Br)c(C(=O)NC2CC2)c1Br [Example 1-344] has a pest or weed control at 20 g/ha (AVEFA [1]; Avena fatua, 504 h) of 80%, a pest or weed control at 5 g/ha (SETVI [2]; Setaria viridis, 504 h, dosage 5 g/ha) of 80% and a pest or weed control at 20 g/ha (SETVI [2]; Setaria viridis, 504 h, dosage 20 g/ha) of 90%. The pest or weed control at 80 g/ha (ALOMY [3]; Alopecurus myosuroides, 504 h, 80 g/ha, scored visually after 3 weeks vs untreated controls (100% = plants have died, 0% = like control plants)) was 100%, the pest or weed control at 20 g/ha (ALOMY [3]; Alopecurus myosuroides, 504 h, 20 g/ha, scored visually after 3 weeks, 100% = plants have died, 0% = like control plants) was 90% and the pest or weed control at 20 g/ha (MATIN [4]; Tripleurospermum inodorum, 504 h, dosage 20 g/ha) was 90%. The pest or weed control at 80 g/ha (MATIN [4]; Tripleurospermum inodorum, 504 h, dosage 80 g/ha) was 100%, the pest or weed control at 80 g/ha (VIOTR [5]; Viola tricolor, 504 h) was 100% and the pest or weed control at 80 g/ha (ECHCG [6]; Echinochloa crus-galli, 504 h) was 90%. For the same molecule, the pest or weed control at 20 g/ha (ABUTH [7]; Abutilon theophrasti, 504 h, dosage 20 g/ha) was 90%, the pest or weed control at 20 g/ha (ALOMY [8]; Alopecurus myosuroides, 504 h) was 100% and the pest or weed control at 80 g/ha (SETVI [9]; Setaria viridis, 504 h) was 100%. It also gave a pest or weed control at 20 g/ha (AMARE [10]; Amaranthus retroflexus, 504 h) of 100%, a pest or weed control at 20 g/ha (VERPE [11]; Veronica persica, 504 h, dosage 20 g/ha) of 80% and a pest or weed control at 80 g/ha (VERPE [11]; Veronica persica, 504 h, dosage 80 g/ha) of 90%. It also gave a pest or weed control at 20 g/ha (AMARE [12]; Amaranthus retroflexus, 504 h, 20 g/ha, scored visually after 3 weeks vs untreated controls, 100% = plants have died, 0% = like control plants) of 100%, a pest or weed control at 80 g/ha (AMARE [12]; Amaranthus retroflexus, 504 h, 80 g/ha, scored visually after 3 weeks vs untreated controls, 100% = plants have died, 0% = like control plants) of 100% and a pest or weed control at 80 g/ha (ABUTH [13]; Abutilon theophrasti, 504 h, 80 g/ha, scored visually after 3 weeks vs untreated controls (100% = plants have died, 0% = like control plants)) of 100%. It also gave a pest or weed control at 20 g/ha (ABUTH [13]; Abutilon theophrasti, 504 h, dosage 20 g/ha, scored visually after 3 weeks vs untreated controls, 100% = plants have died, 0% = like control plants, read-out: Pre-emergence action against ABUTH (herbicidal activity in percent)) of 90%, a pest or weed control at 80 g/ha (AVEFA [14]) of 90% and a pest or weed control at 20 g/ha (VERPE [15]; Veronica persica, 504 h) of 90%. For the same molecule, the pest or weed control at 80 g/ha (LOLRI; Lolium rigidum, 504 h) was 90%.
CSc1c(C(=O)Nc2nnnn2C)ccc(C(F)F)c1C(=O)NCC(F)F [Example 1-92] was tested, and the “Post-emergence action at 20 g/ha against AVEFA in %” value (AVEFA [1]) was 90%, the “Post-emergence action against PHBPU in %” value (PHBPU [16]) was 90% and the “Post-emergence action against SETVI in %” value (SETVI [2]; dosage 5 g/ha) was 90%. For the same molecule, the “Post-emergence action against SETVI in %” value (SETVI [2]; dosage 20 g/ha) was 100%, the “Pre-emergence action against ALOMY (herbicidal activity)” value (ALOMY [3]; [21]) was 90% and the “Pre-emergence action against MATIN in %” value (MATIN [4]; dosage 20 g/ha) was 100%. For the same molecule, the “Pre-emergence action against MATIN in %” value (MATIN [4]; dosage 80 g/ha) was 100%, the “Pre-emergence action against VIOTR in %” value (VIOTR [5]) was 100% and the “Pre-emergence action against ECHCG in %” value (ECHCG [6]) was 100%. The “Pre-emergence action against PHBPU in %” value (PHBPU [17]) was 90%, the “Post-emergence action against ABUTH in %” value (ABUTH [7]; dosage 5 g/ha) was 90% and the “Post-emergence action against ABUTH in %” value (ABUTH [7]; dosage 20 g/ha) was 100%. The “Post-emergence action against VIOTR in %” value (VIOTR [18]) was 100%, the “Post-emergence action against MATIN in %” value (MATIN [19]) was 80% and the “Post-emergence action against ECHCG in %” value (ECHCG [20]; dosage 5 g/ha) was 100%. The “Post-emergence action against ECHCG in %” value (ECHCG [20]; dosage 20 g/ha) was 100%, the “Post-emergence action against ALOMY in %” value (ALOMY [8]) was 90% and the “Pre-emergence action against SETVI in %” value (SETVI [9]) was 100%. For the same molecule, the “Post-emergence action at 20 g/ha against AMARE in %” value (AMARE [10]) was 100%, the “Pre-emergence action against VERPE in %” value (VERPE [11]; dosage 80 g/ha) was 100% and the “Pre-emergence action against AMARE in %” value (AMARE [12]; 20 g/ha, scored visually after 3 weeks vs untreated controls, 100% = plants have died, 0% = like control plants) was 100%. The “Pre-emergence action against AMARE in %” value (AMARE [12]; [21]) was 100%, the “Pre-emergence action against ABUTH (herbicidal activity)” value (ABUTH [13]; [21]) was 100% and the “Pre-emergence action against ABUTH (herbicidal activity in percent)” value (ABUTH [13]; dosage 20 g/ha, scored visually after 3 weeks vs untreated controls, 100% = plants have died, 0% = like control plants) was 100%. The “Post-emergence action against VERPE in %” value (VERPE [15]) was 90% and the “Pre-emergence action against LOLRI in %” value (LOLRI) was 90%.
